Source: patent US8043422B2, “Combinations of phenylpyrroles and pyrion compounds” (Janssen Pharmaceutica, NV, priority 2008, dated 2011)
Where two headings read alike, the source gives them in different places.

Experiments:
Format in all cases: cell-based
[1] = tested on: Staphylococcus aureus (g+) LMG 8064; experiment: Poison Plate Assay, bacteria; settings: for MIC: LMG8064, 120 h, read-out: MIC-values (minimum inhibitory concentration) in ppm; for MIC-values (minimum inhibitory concentration) in ppm: fludioxonil (I-a) with sodium pyrithione (II-h)
Description: (§1) • Test models: • Fungi: to each well of a 24-well microtiter plate, 1000 μl of a rich (Potato Dextrose Agar, PDA: 4 g potato infusion, 20 g bacto dextrose and 15 g bacto agar in 1 liter deionised water) or poor (Glucose Agar, GA: 10 g glucose, 1.5 g K2HPO4, 2 g KH2PO4, 1 g (NH4)2SO4, 0.5 g MgSO4 and 12.5 g agar in 1 liter deionised water) medium containing the appropriate combination of the test compounds in one of the concentrations of a dose series is added. The nutrient medium is inoculated with the test fungi by adding a spore/mycelium suspension (10 μl) or a small piece of agar from the margin of an actively growing colony and incubated under dark at 27° C. with 70% relative humidity. The growth of the fungi is evaluated after two weeks. • Glucose agar was used in some experiments instead of PDA (Potato Dextrose Agar), as an alternative, poorer medium for the fungi, in order to increase the chances of detecting activity in compounds like fludioxonil, whose mode of action could be partly circumvented by fungi on a richer medium (Copping, L. and Hewitt, G. (1998) “Chemistry and mode of action of crop protection agents.” The Royal Society of Chemistry, Cambridge. 145 pp.). • Bacteria: to each well of a 24-well microtiter plate, 1000 μL Tryptose Agar (TA, 20 g bacto tryptose agar, 5 g sodium chloride, 1 g bacto dextrose and 15 g agar in 1 liter deionised water), containing the test compounds in one of the concentrations of a dose series is added. The nutrient medium is inoculated by adding 10 μl of an actively growing liquid culture of the test bacteria in tryptose broth (without agar), and incubated under dark at 27° C. with 70% relative humidity. Growth is evaluated after five days. • Concentrations: • MIC values for single compounds were collected from previous screening experiments. These MIC values were used as a guide in determining of the most suitable test dose ranges. • Synergy experiment with bispyrithione: • 25.00-18.75-14.06-10.55-7.91-5.93-4.45-3.34-2.50-1.88-1.41-1.06 ppm • Synergy experiment with sodium pyrithione: • 10.00-7.50-5.63-4.22-3.16-2.37-1.78-1.33-1.00-0.75-0.56-0.42 ppm Test combinations:
(§2) (2000) “Measuring synergy” cosmetics & Toiletries 115(11): 59-62; and Lada, A., A. N. Petrocci, H. A. Green, and J. J. Merianos (1977) “Antimicrobial composition” U.S. Pat. No. 4,061,750, 3 pp.):
(§3) [formula] wherein: • QA is the concentration of compound A in ppm, acting alone, which produced an end point (e.g. MIC), • Qa is the concentration of compound A in ppm, in the mixture, which produced an end point (e.g. MIC), • QB is the concentration of compound B in ppm, acting alone, which produced an end point (e.g. MIC), • Qb is the concentration of compound B in ppm, in the mixture, which produced an end point (e.g. MIC). […]

[2] = tested on: Ulocladium atrum IMI214699a; experiment: Poison Plate Assay, fungi
Description: as §1, §2, §3

[3] = tested on: Coriolus versicolor CTB863A; experiment: Poison Plate Assay, fungi; settings: Trametes versicolor, 336 h, read-out: MIC-values (minimum inhibitory concentration) in ppm
Description: as §1, §2, §3

[4] = ppm total active ingredient, Tryptose Agar, 27° C., growth evaluated after five days

SMILES | MIC [1] | MIC-values (minimum inhibitory concentration) in ppm [1, 4] | MIC ([2]; Alternaria atra, IMI214699A, 336 h, read-out: MIC-values (minimum inhibitory concentration) in ppm) | MIC [3] | MIC ([1]; fludioxonil (I-a) with pyrion disulfide (II-g), ppm total active ingredient, Tryptose Agar, 27° C., growth evaluated after five days) | MIC ([3]; Coriolus versicolor, fludioxonil (I-a) with pyrion disulfide (II-g), ppm total active ingredient, 27° C., growth evaluated after two weeks) | MIC-values (minimum inhibitory concentration) in ppm ([2]; Ulocladium atrum, fludioxonil (I-a) with sodium pyrithione (II-h), ppm total active ingredient, 27° C., growth evaluated after two weeks)
N#Cc1c[nH]cc1-c1cccc2c1OC(F)(F)O2 [fludioxonil (I-a), 4-(2,2-difluoro-1,3-benzodioxol-4-yl)-1H-pyrrole-3-carbonitrile] | 40 µg/mL | 40.00 ppm | 100 µg/mL | 40 µg/mL |  |  | 
[O-][n+]1ccccc1SSc1cccc[n+]1[O-] [pyrion disulfide (II-g), pyrion disulfide] |  |  |  |  | 4.45 µg/mL | 18.8 µg/mL | 
[Na+].[O-][n+]1ccccc1[S-] [sodium pyrithione (II-h), sodium pyrithione] |  | 4.22 ppm |  |  |  |  | 2.37 ppm
